Where “and” joins values, the source holds several entries; their conditions need not be identical. Equal values may be shown once.
Assays:
[1] = test system: subjects with diabetic or idiopathic gastroparesis; assay: DIGEST I: GRS Summary Score 2 (Factor 2: nausea and vomiting); type: in vivo, human
Excerpt: (§1) A daily proprietary patient reported outcome (PRO) tool was used to assess GP symptoms, the Gastroparesis Rating Scale (GRS), developed according to the current FDA PRO guidance. The GRS covers the following cardinal symptom domains: (1) nausea, (2) vomiting, (3) postprandial fullness/early satiety, (4) bloating, (5) upper abdominal pain, (6) gastric reflux/burning, and (7) bowel movements. The GRS symptom domains may be also categorized or grouped into Factor 1 (fullness, early satiety, bloating, upper abdominal pain, and epigastric burning) and Factor 2 (nausea and vomiting).
GRS Factor 1 (also Summary Score 1) comprised fullness/early satiety, bloating, upper abdominal pain, and epigastric burning domains, whereas GRS Factor 2 (also Summary Score 2) comprised nausea and vomiting domains.
After the psychometric evaluation the GRS was summarized using two summary scores: Summary Score 1 combined the fullness/early satiety, bloating, upper abdominal pain, and epigastric burning domains and Summary Score 2 combined the nausea and vomiting domains.

[2] = test system: subjects with diabetic or idiopathic gastroparesis; assay: DIGEST I: weekly GRS total score; conditions: ITT
Excerpt: Gastroparesis Rating Score is a patient reported outcome that measures 9 symptoms: (1) nausea, (2) bloating, (3) postprandial fullness, (4) early satiety, (5) vomiting, (6) abdominal pain, (7) epigastric burning, (8) gastric reflux with or without burning, and (9) bowel movements, using up to 27 questions assessing the severity of the symptom, the daily frequency of the symptom, the length of time on a daily basis of the symptom, and whether the symptom continues over a 24-hour period.
The total duration of study participation for each completed subject was approximately 19 weeks including: • Screening period: up to 5 weeks, including one week baseline period; • Treatment period: 12 weeks; and • Follow-up: 2 weeks.
During the treatment period, subjects were instructed to take 1 capsule of study drug once daily approximately 30 minutes prior to eating at approximately the same time each morning and to record the time of drug ingestion in the electronic diary. Subjects also completed the GCS1-24H and GRS on a daily basis using an electronic diary. […] Subjects returned to the study center for safety and efficacy assessments as detailed in the Schedule of Study Procedures.
as §1
The primary endpoint evaluation time point was Week 4 with sensitivity analyses conducted at Weeks 8 and 12.
LS Mean Differences in each subgroup are calculated based on repeated measures mixed effect model with change from baseline in weekly GRS total score as dependent variable, treatment, gastroparesis type (diabetic vs. idiopathic), GE test time (historical vs. prospective), baseline GRS total score, time, subgroup variable, interaction effect of treatment by time, baseline GRS total score by time, treatment by subgroup variable, time by subgroup variable and treatment by time by subgroup variable as fixed effect, a random effect of subject within site, using an unstructured covariance structure.

[3] = test system: subjects with diabetic or idiopathic gastroparesis; assay: DIGEST I: responder analysis of GRS Summary Scores;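 also: weekly responder means a clinically relevant symptom change versus baseline, and weeks with missing data (dropouts) count as non-response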
Excerpt: A weekly responder was defined as a subject who experienced a clinically relevant change in symptoms from baseline.
Given these observations, a responder is any subject being a weekly responder for at least 6 of 12 weeks and at least 3 of the last 4 weeks of treatment. Subjects with missing data in the week (drop out) were defined as a non-responder for that week.

[4] = 5 mg/day, Week 4, diabetic gastroparesis population
[5] = 5 mg/day, Week 4, idiopathic gastroparesis population
[6] = 5 mg/day, Week 8, diabetic gastroparesis population
[7] = 5 mg/day, Week 8, idiopathic gastroparesis population
[8] = 5 mg/day, Week 12, diabetic gastroparesis population
[9] = 5 mg/day, Week 12, idiopathic gastroparesis population
[10] = 15 mg/day, Week 4, diabetic gastroparesis population
[11] = 15 mg/day, Week 4, idiopathic gastroparesis population
[12] = 15 mg/day, Week 8, diabetic gastroparesis population
[13] = 15 mg/day, Week 8, idiopathic gastroparesis population
[14] = 15 mg/day, Week 12, diabetic gastroparesis population
[15] = 15 mg/day, Week 12, idiopathic gastroparesis population
[16] = 30 mg/day, Week 4, diabetic gastroparesis population
[17] = 30 mg/day, Week 4, idiopathic gastroparesis population
[18] = 30 mg/day, Week 8, diabetic gastroparesis population
[19] = 30 mg/day, Week 8, idiopathic gastroparesis population
[20] = 30 mg/day, Week 12, diabetic gastroparesis population
[21] = 30 mg/day, Week 12, idiopathic gastroparesis population
[22] = 5 mg/day, responders for at least 6 of 12 weeks, ITT
[23] = 15 mg/day, at least 6 of 12 weeks and at least 3 weeks of Weeks 9-12, ITT
[24] = 15 mg/day, diabetic gastroparesis population
[25] = 15 mg/day, idiopathic gastroparesis population
[26] = 15 mg/day, responders for at least 6 of 12 weeks, ITT
[27] = 30 mg/day, at least 6 of 12 weeks and at least 3 weeks of Weeks 9-12, ITT
[28] = 30 mg/day, diabetic gastroparesis population
[29] = 30 mg/day, idiopathic gastroparesis population
[30] = 30 mg/day, responders for at least 6 of 12 weeks, ITT

1-isopropyl-2-oxo-1,2-dihydroquinoline-3-carboxylic acid {(1S,3R,5R)-8-[(R)-2-hydroxy-3-(methanesulfonyl-methyl-amino)propyl]-8-azabicyclo[3.2.1]oct-3-yl}amide [Velusetrag]
LS Mean Difference vs placebo, GRS Summary Score 2 (Factor 2) ([1]; 5 mg/day, Week 4, ITT): −0.1 points and −0.1 (0.12) points
LS Mean change from baseline, GRS Summary Score 2 (Factor 2) ([1]; 5 mg/day, Week 4, ITT): 0.8 (0.08) points
LS Mean Difference vs placebo, GRS Summary Score 2 (Factor 2) [1, 4]: −0.0 points
LS Mean change from baseline, GRS Summary Score 2 (Factor 2) [1, 4]: −0.8 points
LS Mean Difference vs placebo, GRS Summary Score 2 (Factor 2) [1, 5]: −0.3 (0.17) points
LS Mean change from baseline, GRS Summary Score 2 (Factor 2) [1, 5]: −0.9 (0.12) points
LS Mean Difference vs placebo, GRS Summary Score 2 (Factor 2) ([1]; 5 mg/day, Week 8, ITT): −0.1 (0.13) points
LS Mean change from baseline, GRS Summary Score 2 (Factor 2) ([1]; 5 mg/day, Week 8, ITT): −0.9 (0.09) points
LS Mean Difference vs placebo, GRS Summary Score 2 (Factor 2) [1, 6]: 0.0 points
LS Mean change from baseline, GRS Summary Score 2 (Factor 2) [1, 6]: −0.9 points
LS Mean Difference vs placebo, GRS Summary Score 2 (Factor 2) [1, 7]: −0.3 (0.18) points
LS Mean change from baseline, GRS Summary Score 2 (Factor 2) [1, 7]: −0.9 (0.13) points
LS Mean Difference vs placebo, GRS Summary Score 2 (Factor 2) ([1]; 5 mg/day, Week 12, ITT): −0.2 points and −0.2 (0.12) points
LS Mean change from baseline, GRS Summary Score 2 (Factor 2) ([1]; 5 mg/day, Week 12, ITT): −1.0 (0.08) points
LS Mean Difference vs placebo, GRS Summary Score 2 (Factor 2) [1, 8]: −0.1 points
LS Mean change from baseline, GRS Summary Score 2 (Factor 2) [1, 8]: −1.0 points
LS Mean Difference vs placebo, GRS Summary Score 2 (Factor 2) [1, 9]: −0.3 (0.17) points
LS Mean change from baseline, GRS Summary Score 2 (Factor 2) [1, 9]: −1.0 (0.12) points
LS Mean Difference vs placebo, GRS Summary Score 2 (Factor 2) ([1]; 15 mg/day, Week 4, ITT): −0.0 (0.12) points
LS Mean change from baseline, GRS Summary Score 2 (Factor 2) ([1]; 15 mg/day, Week 4, ITT): −0.7 (0.09) points
LS Mean Difference vs placebo, GRS Summary Score 2 (Factor 2) [1, 10]: 0.1 points
LS Mean change from baseline, GRS Summary Score 2 (Factor 2) [1, 10]: −0.7 points
LS Mean Difference vs placebo, GRS Summary Score 2 (Factor 2) [1, 11]: −0.2 (0.18) points
LS Mean change from baseline, GRS Summary Score 2 (Factor 2) [1, 11]: −0.8 (0.13) points
LS Mean Difference vs placebo, GRS Summary Score 2 (Factor 2) ([1]; 15 mg/day, Week 8, ITT): −0.0 (0.13) points
LS Mean change from baseline, GRS Summary Score 2 (Factor 2) ([1]; 15 mg/day, Week 8, ITT): −0.8 (0.10) points
LS Mean Difference vs placebo, GRS Summary Score 2 (Factor 2) [1, 12]: 0.3 points
LS Mean change from baseline, GRS Summary Score 2 (Factor 2) [1, 12]: −0.6 points
LS Mean Difference vs placebo, GRS Summary Score 2 (Factor 2) [1, 13]: −0.2 (0.19) points
LS Mean change from baseline, GRS Summary Score 2 (Factor 2) [1, 13]: −0.9 (0.14) points
LS Mean Difference vs placebo, GRS Summary Score 2 (Factor 2) ([1]; 15 mg/day, Week 12, ITT): −0.1 (0.12) points
LS Mean change from baseline, GRS Summary Score 2 (Factor 2) ([1]; 15 mg/day, Week 12, ITT): −0.9 (0.09) points
LS Mean Difference vs placebo, GRS Summary Score 2 (Factor 2) [1, 14]: 0.1 points
LS Mean change from baseline, GRS Summary Score 2 (Factor 2) [1, 14]: −0.8 points
LS Mean Difference vs placebo, GRS Summary Score 2 (Factor 2) [1, 15]: −0.3 (0.18) points
LS Mean change from baseline, GRS Summary Score 2 (Factor 2) [1, 15]: −1.0 (0.13) points
LS Mean Difference vs placebo, GRS Summary Score 2 (Factor 2) ([1]; 30 mg/day, Week 4, ITT): 0.1 (0.12) points
LS Mean change from baseline, GRS Summary Score 2 (Factor 2) ([1]; 30 mg/day, Week 4, ITT): −0.6 (0.09) points
LS Mean Difference vs placebo, GRS Summary Score 2 (Factor 2) [1, 16]: 0.1 points
LS Mean change from baseline, GRS Summary Score 2 (Factor 2) [1, 16]: −0.6 points
LS Mean Difference vs placebo, GRS Summary Score 2 (Factor 2) [1, 17]: −0.0 (0.17) points
LS Mean change from baseline, GRS Summary Score 2 (Factor 2) [1, 17]: −0.7 (0.12) points
LS Mean Difference vs placebo, GRS Summary Score 2 (Factor 2) ([1]; 30 mg/day, Week 8, ITT): −0.0 (0.13) points
LS Mean change from baseline, GRS Summary Score 2 (Factor 2) ([1]; 30 mg/day, Week 8, ITT): −0.8 (0.09) points
LS Mean Difference vs placebo, GRS Summary Score 2 (Factor 2) [1, 18]: 0.1 points
LS Mean change from baseline, GRS Summary Score 2 (Factor 2) [1, 18]: −0.8 points
LS Mean Difference vs placebo, GRS Summary Score 2 (Factor 2) [1, 19]: −0.1 (0.18) points
LS Mean change from baseline, GRS Summary Score 2 (Factor 2) [1, 19]: −0.8 (0.13) points
LS Mean Difference vs placebo, GRS Summary Score 2 (Factor 2) ([1]; 30 mg/day, Week 12, ITT): −0.2 (0.12) points
LS Mean change from baseline, GRS Summary Score 2 (Factor 2) ([1]; 30 mg/day, Week 12, ITT): −1.0 (0.08) points
LS Mean Difference vs placebo, GRS Summary Score 2 (Factor 2) [1, 20]: −0.2 points
LS Mean change from baseline, GRS Summary Score 2 (Factor 2) [1, 20]: −1.1 points
LS Mean Difference vs placebo, GRS Summary Score 2 (Factor 2) [1, 21]: −0.2 (0.17) points
LS Mean change from baseline, GRS Summary Score 2 (Factor 2) [1, 21]: −0.9 (0.12) points
LS Mean Difference vs placebo, weekly GRS total score ([2]; 5 mg/day, Week 4): −0.4 points and −0.4 (0.16) points
LS Mean change from baseline, weekly GRS total score ([2]; 5 mg/day, Week 4): −1.3 (0.11) points
LS Mean Difference vs placebo, weekly GRS total score ([2]; 5 mg/day, Week 8): −0.3 (0.18) points
LS Mean change from baseline, weekly GRS total score ([2]; 5 mg/day, Week 8): −1.4 (0.13) points
LS Mean Difference vs placebo, weekly GRS total score ([2]; 5 mg/day, Week 12): −0.4 (0.18) points
LS Mean change from baseline, weekly GRS total score ([2]; 5 mg/day, Week 12): −1.5 (0.13) points
LS Mean Difference vs placebo, weekly GRS total score ([2]; 15 mg/day, Week 4): −0.2 (0.17) points
LS Mean change from baseline, weekly GRS total score ([2]; 15 mg/day, Week 4): −1.1 (0.12) points
LS Mean Difference vs placebo, weekly GRS total score ([2]; 15 mg/day, Week 8): −0.1 (0.19) points
LS Mean change from baseline, weekly GRS total score ([2]; 15 mg/day, Week 8): −1.2 (0.14) points
LS Mean Difference vs placebo, weekly GRS total score ([2]; 15 mg/day, Week 12): −0.2 (0.19) points
LS Mean change from baseline, weekly GRS total score ([2]; 15 mg/day, Week 12): −1.3 (0.14) points
LS Mean Difference vs placebo, weekly GRS total score ([2]; 30 mg/day, Week 4): 0.0 (0.17) points
LS Mean change from baseline, weekly GRS total score ([2]; 30 mg/day, Week 4): −0.8 (0.12) points
LS Mean Difference vs placebo, weekly GRS total score ([2]; 30 mg/day, Week 8): −0.1 (0.19) points
LS Mean change from baseline, weekly GRS total score ([2]; 30 mg/day, Week 8): −1.1 (0.13) points
LS Mean Difference vs placebo, weekly GRS total score ([2]; 30 mg/day, Week 12): −0.1 (0.19) points
LS Mean change from baseline, weekly GRS total score ([2]; 30 mg/day, Week 12): −1.3 (0.13) points
LS Proportion of positive responders; Summary Score 1 [3, 22]: 0.54
LS Proportion of positive responders; Summary Score 2 [3, 22]: 0.57
Responders, %; Summary Score 1 [3, 22]: (55.9) %
Responders, %; Summary Score 2 [3, 22]: (57.6) %
Responders, n; Summary Score 1 [3, 22]: 33
Responders, n; Summary Score 2 [3, 22]: 34
LS Proportion of positive responders; Summary Score 1 [3, 23]: 0.45
LS Proportion of positive responders; Summary Score 2 [3, 23]: 0.43
Responders, %; Summary Score 1 [3, 23]: (45.3) %
Responders, %; Summary Score 2 [3, 23]: (43.4) %
Responders, n; Summary Score 1 [3, 23]: 24
Responders, n; Summary Score 2 [3, 23]: 23
LS Proportion of positive responders; Summary Score 1 [3, 24]: 0.44
LS Proportion of positive responders; Summary Score 2 [3, 24]: 0.31
Responders, %; Summary Score 1 [3, 24]: (44.8) %
Responders, %; Summary Score 2 [3, 24]: (34.5) %
Responders, n; Summary Score 1 [3, 24]: 13
Responders, n; Summary Score 2 [3, 24]: 10
LS Proportion of positive responders; Summary Score 1 [3, 25]: 0.48
LS Proportion of positive responders; Summary Score 2 [3, 25]: 0.58
Responders, %; Summary Score 1 [3, 25]: (45.8) %
Responders, %; Summary Score 2 [3, 25]: (54.2) %
Responders, n; Summary Score 1 [3, 25]: 11
Responders, n; Summary Score 2 [3, 25]: 13
LS Proportion of positive responders; Summary Score 1 [3, 26]: 0.49
LS Proportion of positive responders; Summary Score 2 [3, 26]: 0.51
Responders, %; Summary Score 1 [3, 26]: (49.1) %
Responders, %; Summary Score 2 [3, 26]: (50.9) %
Responders, n; Summary Score 1 [3, 26]: 26
Responders, n; Summary Score 2 [3, 26]: 27
LS Proportion of positive responders; Summary Score 1 [3, 27]: 0.44
LS Proportion of positive responders; Summary Score 2 [3, 27]: 0.45
Responders, %; Summary Score 1 [3, 27]: (47.4) %
Responders, %; Summary Score 2 [3, 27]: (49.1) %
Responders, n; Summary Score 1 [3, 27]: 27
Responders, n; Summary Score 2 [3, 27]: 28
LS Proportion of positive responders; Summary Score 1 [3, 28]: 0.48
LS Proportion of positive responders; Summary Score 2 [3, 28]: 0.45
Responders, %; Summary Score 1 [3, 28]: (50.0) %
Responders, %; Summary Score 2 [3, 28]: (50.0) %
Responders, n; Summary Score 1 [3, 28]: 13
Responders, n; Summary Score 2 [3, 28]: 13
LS Proportion of positive responders; Summary Score 1 [3, 29]: 0.41
LS Proportion of positive responders; Summary Score 2 [3, 29]: 0.45
Responders, %; Summary Score 1 [3, 29]: (45.2) %
Responders, %; Summary Score 2 [3, 29]: (48.4) %
Responders, n; Summary Score 1 [3, 29]: 14
Responders, n; Summary Score 2 [3, 29]: 15
LS Proportion of positive responders; Summary Score 1 [3, 30]: 0.44
LS Proportion of positive responders; Summary Score 2 [3, 30]: 0.47
Responders, %; Summary Score 1 [3, 30]: (47.4) %
Responders, %; Summary Score 2 [3, 30]: (50.9) %
Responders, n; Summary Score 1 [3, 30]: 27
Responders, n; Summary Score 2 [3, 30]: 29

From patent US11642339B2 (THERAVANCE BIOPHARMA R&D IP, LLC, priority 2017, dated 2023)
